The text below walks through data of US10987359B2, “Oxadiazepinone derivatives and methods of treating hepatitis B infections” (priority 2016, dated 2021).

This test relates to HBV. Put plainly: HBV replication inhibition assay (BDNA assay) in HepG2.2.15 cells. In kind it is cell-based. The settings on record: Hepatitis B virus, HepG2.2.15, HBV replication assay (BDNA assay), HepG2.2.15 cells; read-out: DNA EC50. A digest of the protocol:
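HepG2.2.15 cells with stably integrated HBV were treated with serially diluted compounds at 0.5% DMSO for 6 days, with medium and compound refreshed at day 3. Encapsidated HBV DNA from DNase-treated supernatant was quantified by branched DNA assay. EC50 came from % inhibition versus DMSO, fitted non-linearly.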

For the molecule `CN1OC(CO)Cn2nc3c(c2C1=O)CN(C(=O)Nc1ccc(F)c(Cl)c1F)CC3` (centres unmarked) [Compound 007, N-(3-chloro-2,4-difluorophenyl)-4-(hydroxymethyl)-2-methyl-1-oxo-1,4,5,8,9,11-hexahydropyrido[4′,3′:3,4]pyrazolo[5,1-d][1,2,5]oxadiazepine-10(2H)-carboxamide], the EC50 (commonly the concentration at which the effect is half-maximal) lay within 1 to 100 nM.

On to `CN1OC(CO)Cn2nc3c(c2C1=O)CN(C(=O)Nc1cccc(C(F)(F)F)c1)CC3` (centres unmarked) [Compound 008, 4-(hydroxymethyl)-2-methyl-1-oxo-N-(3-(trifluoromethyl)phenyl)-1,4,5,8,9,11-hexahydropyrido[4′,3′:3,4]pyrazolo[5,1-d][1,2,5]oxadiazepine-10(2H)-carboxamide], for which the EC50 was 1 to 100 nM.

As for `CCc1cccc(NC(=O)N2CCc3nn4c(c3C2)C(=O)N(C)OC(CO)C4)c1` (centres unmarked) [Compound 009, N-(3-ethylphenyl)-4-(hydroxymethyl)-2-methyl-1-oxo-1,4,5,8,9,11-hexahydropyrido[4′,3′:3,4]pyrazolo[5,1-d][1,2,5]oxadiazepine-10(2H)-carboxamide], the EC50 was 1 to 100 nM.

For `CN1OC(CO)Cn2nc3c(c2C1=O)CN(C(=O)Nc1ccc(F)c(Br)c1F)CC3` (centres unmarked) [Compound 010, N-(3-bromo-2,4-difluorophenyl)-4-(hydroxymethyl)-2-methyl-1-oxo-1,4,5,8,9,11-hexahydropyrido[4′,3′:3,4]pyrazolo[5,1-d][1,2,5]oxadiazepine-10(2H)-carboxamide], the EC50 lay in the range of 1 to 100 nM.

In the case of `CN1OC(CO)Cn2nc3c(c2C1=O)CN(C(=O)Nc1ccc(Cl)c(Cl)c1)CC3` (centres unmarked) [Compound 012, N-(3,4-dichlorophenyl)-4-(hydroxymethyl)-2-methyl-1-oxo-1,4,5,8,9,11-hexahydropyrido[4′,3′:3,4]pyrazolo[5,1-d][1,2,5]oxadiazepine-10(2H)-carboxamide], the EC50 lay within 1 to 100 nM.

For `CN1OC(CO)Cn2nc3c(c2C1=O)CN(C(=O)Nc1cc(Cl)c(F)cc1F)CC3` (centres unmarked) [Compound 013, N-(5-chloro-2,4-difluorophenyl)-4-(hydroxymethyl)-2-methyl-1-oxo-1,4,5,8,9,11-hexahydropyrido[4′,3′:3,4]pyrazolo[5,1-d][1,2,5]oxadiazepine-10(2H)-carboxamide], the EC50 is 1 to 100 nM.

For the molecule `CN1OC(CO)Cn2nc3c(c2C1=O)CN(C(=O)Nc1cc(Br)c(F)cc1F)CC3` (centres unmarked) [Compound 014, N-(5-bromo-2,4-difluorophenyl)-4-(hydroxymethyl)-2-methyl-1-oxo-1,4,5,8,9,11-hexahydropyrido[4′,3′:3,4]pyrazolo[5,1-d][1,2,5]oxadiazepine-10(2H)-carboxamide], the EC50 was 1 to 100 nM.

Turning to `CN1OC(CO)Cn2nc3c(c2C1=O)CN(C(=O)Nc1cc(F)c(F)c(Br)c1)CC3` (centres unmarked) [Compound 015, N-(3-bromo-4,5-difluorophenyl)-4-(hydroxymethyl)-2-methyl-1-oxo-1,4,5,8,9,11-hexahydropyrido[4′,3′:3,4]pyrazolo[5,1-d][1,2,5]oxadiazepine-10(2H)-carboxamide], the EC50 is 1 to 100 nM.

`Cc1ccc(C)c(NC(=O)N2CCc3nn4c(c3C2)C(=O)N(C)OC(CO)C4)c1` (centres unmarked) [Compound 016, N-(2,5-dimethylphenyl)-4-(hydroxymethyl)-2-methyl-1-oxo-1,4,5,8,9,11-hexahydropyrido[4′,3′:3,4]pyrazolo[5,1-d][1,2,5]oxadiazepine-10(2H)-carboxamide]: the EC50 lay within 1 to 100 nM.

With `Cc1ccc(Br)cc1NC(=O)N1CCc2nn3c(c2C1)C(=O)N(C)OC(CO)C3` (centres unmarked) [Compound 017, N-(5-bromo-2-methylphenyl)-4-(hydroxymethyl)-2-methyl-1-oxo-1,4,5,8,9,11-hexahydropyrido[4′,3′:3,4]pyrazolo[5,1-d][1,2,5]oxadiazepine-10(2H)-carboxamide], the EC50 lay in the range of 1 to 100 nM.

Regarding `Cc1cc(F)c(Br)cc1NC(=O)N1CCc2nn3c(c2C1)C(=O)N(C)OC(CO)C3` (centres unmarked) [Compound 018, N-(5-bromo-4-fluoro-2-methylphenyl)-4-(hydroxymethyl)-2-methyl-1-oxo-1,4,5,8,9,11-hexahydropyrido[4′,3′:3,4]pyrazolo[5,1-d][1,2,5]oxadiazepine-10(2H)-carboxamide], the EC50 lay in the range of 1 to 100 nM.

On to `CC1CCCC(NC(=O)N2CCc3nn4c(c3C2)C(=O)N(C)OC(CO)C4)C1` (centres unmarked) [Compound 019, 4-(hydroxymethyl)-2-methyl-N-(3-methylcyclohexyl)-1-oxo-1,4,5,8,9,11-hexahydropyrido[4′,3′:3,4]pyrazolo[5,1-d][1,2,5]oxadiazepine-10(2H)-carboxamide], for which the EC50 fell in the range of 500 to 1000 nM.

For `CN1OC(CO)Cn2nc3c(c2C1=O)CN(C(=O)Nc1cccc(I)c1)CC3` (centres unmarked) [Compound 020, 4-(hydroxymethyl)-N-(3-iodophenyl)-2-methyl-1-oxo-1,4,5,8,9,11-hexahydropyrido[4′,3′:3,4]pyrazolo[5,1-d][1,2,5]oxadiazepine-10(2H)-carboxamide], the EC50 lay within 1 to 100 nM.

Take `CN1OC(CO)Cn2nc3c(c2C1=O)CN(C(=O)Nc1cccc(C(F)F)c1)CC3` (centres unmarked) [Compound 021, N-(3-(difluoromethyl)phenyl)-4-(hydroxymethyl)-2-methyl-1-oxo-1,4,5,8,9,11-hexahydropyrido[4′,3′:3,4]pyrazolo[5,1-d][1,2,5]oxadiazepine-10(2H)-carboxamide]: the EC50 was 1 to 100 nM.

In the case of `CN1OC(CO)Cn2nc3c(c2C1=O)CN(C(=O)Nc1cc(Cl)c(F)c(C(F)(F)F)c1)CC3` (centres unmarked) [Compound 022, N-(3-chloro-4-fluoro-5-(trifluoromethyl)phenyl)-4-(hydroxymethyl)-2-methyl-1-oxo-1,4,5,8,9,11-hexahydropyrido[4′,3′:3,4]pyrazolo[5,1-d][1,2,5]oxadiazepine-10(2H)-carboxamide], the EC50 is 1 to 100 nM.

Take `CN1OC(CO)Cn2nc3c(c2C1=O)CN(C(=O)Nc1ccc(F)c(Cl)c1Cl)CC3` (centres unmarked) [Compound 023, N-(2,3-dichloro-4-fluorophenyl)-4-(hydroxymethyl)-2-methyl-1-oxo-1,4,5,8,9,11-hexahydropyrido[4′,3′:3,4]pyrazolo[5,1-d][1,2,5]oxadiazepine-10(2H)-carboxamide]: the EC50 was 1 to 100 nM.

`CN1OC(CO)Cn2nc3c(c2C1=O)CN(C(=O)Nc1ccc(Cl)c(Cl)c1F)CC3` (centres unmarked) [Compound 024, N-(3,4-dichloro-2-fluorophenyl)-4-(hydroxymethyl)-2-methyl-1-oxo-1,4,5,8,9,11-hexahydropyrido[4′,3′:3,4]pyrazolo[5,1-d][1,2,5]oxadiazepine-10(2H)-carboxamide]: the EC50 lay within 1 to 100 nM.

For `CN1OC(CO)Cn2nc3c(c2C1=O)CN(C(=O)Nc1ccc(Cl)c(C(F)(F)F)c1)CC3` (centres unmarked) [Compound 025, N-(4-chloro-3-(trifluoromethyl)phenyl)-4-(hydroxymethyl)-2-methyl-1-oxo-1,4,5,8,9,11-hexahydropyrido[4′,3′:3,4]pyrazolo[5,1-d][1,2,5]oxadiazepine-10(2H)-carboxamide], the EC50 lay in the range of 1 to 100 nM.

On to `Cc1ccc(NC(=O)N2CCc3nn4c(c3C2)C(=O)N(C)OC(CO)C4)cc1Cl` (centres unmarked) [Compound 026, N-(3-chloro-4-methylphenyl)-4-(hydroxymethyl)-2-methyl-1-oxo-1,4,5,8,9,11-hexahydropyrido[4′,3′:3,4]pyrazolo[5,1-d][1,2,5]oxadiazepine-10(2H)-carboxamide], for which the EC50 lay in the range of 1 to 100 nM.

In the case of `CN1OC(CO)Cn2nc3c(c2C1=O)CN(C(=O)Nc1cc(Cl)c(Cl)cc1F)CC3` (centres unmarked) [Compound 027, N-(4,5-dichloro-2-fluorophenyl)-4-(hydroxymethyl)-2-methyl-1-oxo-1,4,5,8,9,11-hexahydropyrido[4′,3′:3,4]pyrazolo[5,1-d][1,2,5]oxadiazepine-10(2H)-carboxamide], the EC50 fell in the range of 1 to 100 nM.

Take `CN1OC(CO)Cn2nc3c(c2C1=O)CN(C(=O)Nc1cccc(S(F)(F)(F)(F)F)c1)CC3` (centres unmarked) [Compound 029, 4-(hydroxymethyl)-2-methyl-1-oxo-N-(3-(pentafluoro-16-sulfanyl)phenyl)-1,4,5,8,9,11-hexahydropyrido[4′,3′:3,4]pyrazolo[5,1-d][1,2,5]oxadiazepine-10(2H)-carboxamide]: the EC50 was 1 to 100 nM.

On to `CN1OC(CO)Cn2nc3c(c2C1=O)CN(C(=O)Nc1cccc(Cl)c1)CC3` (centres unmarked) [Compound 030, N-(3-chlorophenyl)-4-(hydroxymethyl)-2-methyl-1-oxo-1,4,5,8,9,11-hexahydropyrido[4′,3′:3,4]pyrazolo[5,1-d][1,2,5]oxadiazepine-10(2H)-carboxamide], for which the EC50 fell in the range of 1 to 100 nM.

For the molecule `CN1OC(CF)Cn2nc3c(c2C1=O)CN(C(=O)Nc1cccc(C(F)(F)F)c1)CC3` (centres unmarked) [Compound 036, 4-(fluoromethyl)-2-methyl-1-oxo-N-(3-(trifluoromethyl)phenyl)-1,4,5,8,9,11-hexahydropyrido[4′,3′:3,4]pyrazolo[5,1-d][1,2,5]oxadiazepine-10(2H)-carboxamide], the EC50 fell in the range of 1 to 100 nM.

Consider `CN1OC(CO)Cn2nc3c(c2C1=O)CN(C(=O)N(C)c1ccc(F)c(Cl)c1)CC3` (centres unmarked) [Compound 045, N-(3-chloro-4-fluorophenyl)-4-(hydroxymethyl)-N,2-dimethyl-1-oxo-1,4,5,8,9,11-hexahydropyrido[4′,3′:3,4]pyrazolo[5,1-d][1,2,5]oxadiazepine-10(2H)-carboxamide], for which the EC50 was in the range of 100 to 500 nM.

In the case of `CN1OC(CO)Cn2nc3c(c2C1=O)CN(C(=O)Nc1cccc(Cl)c1)CC3(C)C` (centres unmarked) [Compound 046, N-(3-chlorophenyl)-4-(hydroxymethyl)-2,8,8-trimethyl-1-oxo-1,4,5,8,9,11-hexahydropyrido[4′,3′:3,4]pyrazolo[5,1-d][1,2,5]oxadiazepine-10(2H)-carboxamide], the EC50 is 100 to 500 nM.

Turning to `CC1CN(C(=O)Nc2cccc(Cl)c2)Cc2c1nn1c2C(=O)N(C)OC(CO)C1` (centres unmarked) [Compound 047, N-(3-chlorophenyl)-4-(hydroxymethyl)-2,8-dimethyl-1-oxo-1,4,5,8,9,11-hexahydropyrido[4′,3′:3,4]pyrazolo[5,1-d][1,2,5]oxadiazepine-10(2H)-carboxamide], the EC50 is 100 to 500 nM.
